Reference: PubChem BioAssay (NCI)
“And” between values parts separate entries of the source, which are not always exact repeats. Identical values can stand only once.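 96-well plates; 48 h exposure; 5 concentrations. Endpoints by linear interpolation between flanking doses. Not reached: highest tested concentration assigned. GI50 = concentration required for 50% inhibition of growth. TGI is the concentration that stops growth completely.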

Tests used:
Assay in all cases: DTP human tumour cell line panel, 48 h
[1] = system: CAKI-1 renal
[2] = system: COLO 205 colon
[3] = system: HOP-62 NSCLC
[4] = system: HS 578T breast
[5] = system: K-562 leukemia
[6] = system: MALME-3M melanoma
[7] = system: NCI-H460 lung
[8] = system: PC-3 prostate
[9] = system: SW-620 colon
[10] = system: T-47D breast

| SMILES | TGI [1] [µM] | TGI [2] | TGI [3] | TGI [4] | TGI [5] | TGI [6] | TGI [7] | TGI [8] | TGI [9] | TGI [10] | GI50 [1] [µM] | GI50 [2] | GI50 [3] | GI50 [4] | GI50 [5] | GI50 [6] | GI50 [7] | GI50 [8] | GI50 [9] | GI50 [10] |
| --- | --- | --- | --- | --- | --- | --- | --- | --- | --- | --- | --- | --- | --- | --- | --- | --- | --- | --- | --- | --- |
| Cc1ccc(OP(=O)(Oc2ccc(C)cc2)N2C=Cc3ccccc3C2C#N)cc1 (stereo not given) | > 100 | > 100 µM | > 100 µM | > 100 µM | > 100 µM | > 100 µM | > 100 µM | > 100 µM | > 100 µM | > 100 µM | – | – | – | – | – | – | – | – | – | – |
| COc1cc(-n2ccnc2-c2ccc3ccccc3c2)cc(OC)c1OC | > 75.3 | 0.785 µM | 26 µM | 10.5 µM | > 100 µM | 31.9 µM | 14.7 µM | > 85.8 µM | > 63 µM | 60.7 µM | 0.0853 | < 0.0282 µM | 0.0895 µM | 0.135 µM | < 0.0191 µM | 3.66 µM | 0.0373 µM | 0.03 µM | 0.0443 µM | 0.633 µM |
| C[C@@H]1C[C@H](N)C[C@H](c2ccncc2NC(=O)c2ccc(F)c(-c3c(F)cccc3F)n2)C1 | > 10 | 22.1 µM and > 10 µM | 25.2 µM and > 10 µM | 49 µM and > 10 µM | 21.3 µM and > 10 µM | 24.3 µM and > 10 µM | 28.7 µM and > 10 µM | 17.5 µM and > 10 µM | 25.2 µM and > 10 µM | 28.5 µM and > 10 µM | 7.51 | 4.38 µM and 3.84 µM | 10.6 µM and > 10 µM | 13.4 µM and > 10 µM | 4.1 µM and 4.22 µM | 10.5 µM and > 10 µM | 13.7 µM and > 10 µM | 3.83 µM and 2.68 µM | 11.6 µM and 9.63 µM | 10.5 µM and 8.5 µM |
| O=C1c2c(c(=O)[nH]c3ccccc23)[C@H](c2ccccc2)[C@@H]2CCCN12 | 68.2 | 44.5 µM | 34 µM | 11.1 µM | > 100 µM | 43.8 µM | 16.5 µM | > 100 µM | > 100 µM | 9.2 µM | 17.6 | 14.6 µM | 4.32 µM | 2.89 µM | 5.63 µM | 6.87 µM | 2.83 µM | 6.2 µM | 3.38 µM | 3.46 µM |
| O=C(O)c1cccc(S(=O)(=O)NCCO)c1 | > 100 | > 100 µM | > 100 µM | > 100 µM | > 100 µM | > 100 µM | > 100 µM | > 100 µM | > 100 µM | > 100 µM | – | – | – | – | – | – | – | – | – | – |
| CN1C(=O)CCC(N2C(=O)c3cccc(NCCOCCOCCNC(=O)c4cc5c(o4)C(=O)c4ccccc4C5=O)c3C2=O)C1=O (stereo not given) | 12.1 | 4.04 µM | 3.43 µM | 7.46 µM | 6.52 µM | 0.316 µM | 2.97 µM | 18 µM | 7.93 µM | 10.3 µM | 3.35 | 2.06 µM | 1.97 µM | 2.7 µM | 2.13 µM | 0.151 µM | 1.33 µM | 2.07 µM | 2.6 µM | 2.88 µM |
| CC1=C([Te]c2ccccc2)C(=O)c2ccccc2C1=O | 3.2 | 1.45 µM | 0.762 µM | 2.46 µM | 3.4 µM | 3.56 µM | 0.391 µM | 2.03 µM | 1.74 µM | 2.78 µM | 0.974 | 0.457 µM | 0.266 µM | 0.303 µM | 1.07 µM | 1.79 µM | 0.177 µM | 0.297 µM | 0.475 µM | 0.488 µM |
| CCOC(=O)c1[nH]c2cc(Cl)ccc2c1[C@@H](C(=O)NC(C)(C)C)N(CC)C(=O)CCCCC#Cc1cccc2c1CN(C1CCC(=O)NC1=O)C2=O (stereo not given in full) | 8.62 | 2.53 µM | 6.81 µM | 6.66 µM | > 100 µM | 0.456 µM | > 54.3 µM | 9.36 µM | > 100 µM | 7.59 µM | 0.0355 | 0.0308 µM | < 0.01 µM | < 0.01 µM | 1.52 µM | < 0.01 µM | 3.11 µM | < 0.01 µM | < 0.01 µM | < 0.01 µM |
| CC1=CCC2CC1C(C(=O)c1c[nH]c3ccccc13)=NC2(C)C (stereo not given) | > 100 | > 100 µM | > 100 µM | > 100 µM | > 100 µM | > 100 µM | > 100 µM | > 100 µM | > 100 µM | 99.2 µM | – | – | – | – | – | – | – | – | – | – |
| COc1cc2nc(Nc3cccc(Cl)c3)nc(N)c2cc1OC | 27.9 | 3.39 µM | 18.3 µM | 31.6 µM | > 36.1 µM | 6.62 µM | 15.5 µM | 21 µM | 7.15 µM | 24 µM | 12.3 | 1.68 µM | 5.81 µM | 6.05 µM | 3.67 µM | 2.47 µM | 4.09 µM | 6.82 µM | 2.68 µM | 5.13 µM |
